We go through 17 compounds from patent US20250206738A1, “WRN INHIBITORS” (Nimbus Wadjet, Inc., priority 2023, published 2025).

Some results are limits rather than exact numbers.

The target of assay [1] is T1, human Werner helicase (WRN, Uniprot Q14191, amino acids 517-1235 with L1074F point mutation; WRN-BV08) (Homo sapiens, UniProt Q14191, L1074F).
T1 construct: Uniprot Q14191, amino acids 517-1235 with L1074F point mutation; 8xHis (C, cleaved yes); TEV cleavage site (ENLYFQG) (C, cleaved yes); made in house; host or cells: Sf9 insect cells (baculovirus, pFastBac)
T1 sequence (Q14191 with tags, fused parts or gaps L1074F): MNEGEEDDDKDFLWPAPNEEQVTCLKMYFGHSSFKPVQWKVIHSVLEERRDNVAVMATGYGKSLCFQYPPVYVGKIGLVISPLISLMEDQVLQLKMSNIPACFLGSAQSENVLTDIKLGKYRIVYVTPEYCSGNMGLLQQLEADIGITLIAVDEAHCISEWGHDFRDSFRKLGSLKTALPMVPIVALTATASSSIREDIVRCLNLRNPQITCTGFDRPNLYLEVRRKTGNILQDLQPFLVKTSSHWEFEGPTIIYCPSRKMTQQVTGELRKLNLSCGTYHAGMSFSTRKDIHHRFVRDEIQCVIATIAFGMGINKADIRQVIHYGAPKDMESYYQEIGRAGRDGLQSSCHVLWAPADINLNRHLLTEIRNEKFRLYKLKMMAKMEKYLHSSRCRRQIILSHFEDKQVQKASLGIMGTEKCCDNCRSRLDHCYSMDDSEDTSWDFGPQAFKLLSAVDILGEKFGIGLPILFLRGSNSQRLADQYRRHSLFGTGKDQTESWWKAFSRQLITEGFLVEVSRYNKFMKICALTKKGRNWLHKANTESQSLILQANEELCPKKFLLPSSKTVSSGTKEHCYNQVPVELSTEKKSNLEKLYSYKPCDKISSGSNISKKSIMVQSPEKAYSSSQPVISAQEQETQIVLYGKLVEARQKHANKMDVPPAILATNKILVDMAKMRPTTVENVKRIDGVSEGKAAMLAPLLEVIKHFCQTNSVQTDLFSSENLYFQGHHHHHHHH
Description: WRN (BV08) ADP-Glo assay. The class given is biochemical. The following applies: WRN-BV08 (aa 517-1235, L1074F); read-out: ADP-Glo_hWRN_IC50. Put shortly:
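WRN 517-1235 (L1074F, untagged, Sf9-expressed), 0.15 nM, preincubated with compound 15 min at 25 °C, then 60 min with […] and 0.1 nM DNA duplex in Bicine pH 7.5, 1 mM MgCl2, 1% DMSO. ADP-Glo luminescence; % inhibition vs NSC-617145 control, four-parameter IC50 fit.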
On the technique in general: In ADP-Glo the light output rises with the ADP produced.

Assay [2] deals with p21 induction in HCT 116 cells. Description: p21 induction in cells (In-Cell Western, p21/GAPDH ratio). The class given is cell-based. The following applies: Homo sapiens, HCT-116, 24 h, 24 h compound incubation, read-out: P21_EC50. Put shortly: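 HCT 116 cells treated 24 h at 37° C with 11-point, 2-fold dilutions starting typically at 10 μM, in duplicate. Fixed cells immunostained for p21 and GAPDH; 800/700 nm ratio normalised between DMSO and reference WRN inhibitor controls as percent activation. EC50 from non-linear regression.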

Turning to `CCc1c(N2CCN(C(=O)c3c(O)ccc4ncoc34)CC2)c(=O)n2nc(-c3ccnc(OC)c3)nc2n1CC(=O)NC12C3C4C1C1C2C3C41C(F)(F)F` (stereo not shown) [I-220, 2-(5-ethyl-6-(4-(6-hydroxybenzo[d]oxazole-7-carbonyl)piperazin-1-yl)-2-(2-methoxypyridin-4-yl)-7-oxo-[1,2,4]triazolo[1,5-a]pyrimidin-4(7H)-yl)-N-(4-(trifluoromethyl)cuban-1-yl)acetamide], the IC50 in assay [1] lay in the range of 5 to 50 nM. In assay [2], the EC50 lay within 500 to 2000 nM.

On to `CCc1c(N2CCN(C(=O)c3c(O)ccc4ncoc34)CC2)c(=O)n2nc(C3=CCOCC3)nc2n1CC(=O)NC12CC(C(C)C)(C1)C2` [I-42, 2-(2-(3,6-dihydro-2H-pyran-4-yl)-5-ethyl-6-(4-(6-hydroxybenzo[d]oxazole-7-carbonyl)piperazin-1-yl)-7-oxo-[1,2,4]triazolo[1,5-a]pyrimidin-4(7H)-yl)-N-(3-isopropylbicyclo[1.1.1]pentan-1-yl)acetamide], for which the IC50 in assay [1] was 5 to 50 nM. Further, the EC50 in assay [2] is ≤ 500 nM.

Turning to `CCc1c(N2CCN(C(=O)c3ncnc(C)c3O)[C@H]3CCC[C@H]32)c(=O)c2nn(-c3ccnc(OC)c3)nc2n1CC(=O)NC12CC(C(C)C)(C1)C2` (relative stereo) [I-93, rel-2-{6-[(4aR,7aS)-4-(5-hydroxy-6-methylpyrimidine-4-carbonyl)-octahydro-1H-cyclopenta[b]pyrazin-1-yl]-5-ethyl-2-(2-methoxypyridin-4-yl)-7-oxo-2H,4H,7H-[1,2,3]triazolo[4,5-b]pyridin-4-yl}-N-[3-(propan-2-yl)bicyclo[1.1.1]pentan-1-yl]acetamide], the IC50 in assay [1] lay in the range of 5 to 50 nM. For the same compound, the EC50 in assay [2] lay within 500 to 2000 nM.

On to `CCc1c(N2CCN(C(=O)c3c(O)ccc4ncoc34)CC2)c(=O)n2nc(N(C)C)nc2n1CC(=O)NC12CC(C(F)(F)F)(C1)C2` [I-22, 2-(2-(dimethylamino)-5-ethyl-6-(4-(6-hydroxybenzo[d]oxazole-7-carbonyl)piperazin-1-yl)-7-oxo-[1,2,4]triazolo[1,5-a]pyrimidin-4(7H)-yl)-N-(3-(trifluoromethyl)bicyclo[1.1.1]pentan-1-yl)acetamide], for which the IC50 in assay [1] was 5 to 50 nM. Also, the EC50 in assay [2] was 2000 to 5000 nM.

As to `CCc1c(N2CCN(C(=O)c3c(OC)ncc(C)c3O)CC2)c(=O)c2nc(N(C)C)cnc2n1CC(=O)NC12CC(C(F)(F)F)(C1)C2` [I-240, 2-(2-(dimethylamino)-6-ethyl-7-(4-(4-hydroxy-2-methoxy-5-methylnicotinoyl)piperazin-1-yl)-8-oxopyrido[2,3-b]pyrazin-5(8H)-yl)-N-(3-(trifluoromethyl)bicyclo[1.1.1]pentan-1-yl)acetamide], in assay [1], the IC50 was in the range of 50 to 100 nM. Moreover, in assay [2], the EC50 is > 5000 nM.

In the case of `CCc1c(N2CCN(C(=O)c3ncnc(C)c3O)[C@H]3CC[C@@H]32)c(=O)n2nc(-c3ccnc(OC)c3)nc2n1CC(=O)NC12CC(C(F)(F)F)(C1)C2` [I-48, 2-(5-ethyl-6-((1S,6S)-5-(5-hydroxy-6-methylpyrimidine-4-carbonyl)-2,5-diazabicyclo[4.2.0]octan-2-yl)-2-(2-methoxypyridin-4-yl)-7-oxo-[1,2,4]triazolo[1,5-a]pyrimidin-4(7H)-yl)-N-(3-(trifluoromethyl)bicyclo[1.1.1]pentan-1-yl)acetamide], the IC50 in assay [1] fell in the range of 5 to 50 nM. For the same compound, the EC50 in assay [2] is ≤ 500 nM.

With `CCc1c(N2CCN(C(=O)c3ncnc(C)c3O)CC2)c(=O)c2sc(-c3ccnc(OC)c3)nc2n1CC(=O)NC12CC(C(F)(F)F)(C1)C2` [I-25, 2-(5-ethyl-6-(4-(5-hydroxy-6-methylpyrimidine-4-carbonyl)piperazin-1-yl)-2-(2-methoxypyridin-4-yl)-7-oxothiazolo[4,5-b]pyridin-4(7H)-yl)-N-(3-(trifluoromethyl)bicyclo[1.1.1]pentan-1-yl)acetamide], the IC50 in assay [1] is 5 to 50 nM. In addition, in assay [2], the EC50 is > 5000 nM.

As to `CCc1c([C@@]23CCN(C(=O)c4ncnc(C)c4O)C[C@@H]2C3)c(=O)c2nn(-c3ccnc(OC)c3)nc2n1CC(=O)NC12CC(C(C)C)(C1)C2` (relative stereo) [I-63, rel-2-{5-ethyl-6-[(1R,6S)-3-(5-hydroxy-6-methylpyrimidine-4-carbonyl)-3-azabicyclo[4.1.0]heptan-6-yl]-2-(2-methoxypyridin-4-yl)-7-oxo-2H,4H,7H-[1,2,3]triazolo[4,5-b]pyridin-4-yl}-N-[3-(propan-2-yl)bicyclo[1.1.1]pentan-1-yl]acetamide], the IC50 in assay [1] was 5 to 50 nM. Further, the EC50 in assay [2] lay within 500 to 2000 nM.

Turning to `CCc1c(N2CCN(C(=O)c3ncc4c(c3O)CCO4)CC2)c(=O)n2nc(C3=CCN(C(=O)COC)CC3)nc2n1CC(=O)NC12CC(C(F)(F)F)(C1)C2` [I-21, 2-(5-ethyl-6-(4-(4-hydroxy-2,3-dihydrofuro[2,3-c]pyridine-5-carbonyl)piperazin-1-yl)-2-(1-(2-methoxyacetyl)-1,2,3,6-tetrahydropyridin-4-yl)-7-oxo-[1,2,4]triazolo[1,5-a]pyrimidin-4(7H)-yl)-N-(3-(trifluoromethyl)bicyclo[1.1.1]pentan-1-yl)acetamide], the IC50 in assay [1] fell in the range of 5 to 50 nM. The EC50 in assay [2] lay within 2000 to 5000 nM.

On to `CCc1c(N2CCN(C(=O)c3ncc4c(c3O)CCO4)CC2)c(=O)n2nc(C3=CCOCC3)nc2n1CC(=O)NC12CC(C3CCC3)(C1)C2` [I-211, N-(3-cyclobutylbicyclo[1.1.1]pentan-1-yl)-2-(2-(3,6-dihydro-2H-pyran-4-yl)-5-ethyl-6-(4-(4-hydroxy-2,3-dihydrofuro[2,3-c]pyridine-5-carbonyl)piperazin-1-yl)-7-oxo-[1,2,4]triazolo[1,5-a]pyrimidin-4(7H)-yl)acetamide], for which the IC50 in assay [1] was in the range of 5 to 50 nM. The EC50 in assay [2] lay within 500 to 2000 nM.

For `CCc1c(N2CCN(C(=O)c3c(O)ccc4ncoc34)CC2)c(=O)n2nc(-c3ccnc(OC)c3)nc2n1CC(=O)NC12CC(C(C)C)(C1)C2` [I-35, 2-(5-ethyl-6-(4-(6-hydroxybenzo[d]oxazole-7-carbonyl)piperazin-1-yl)-2-(2-methoxypyridin-4-yl)-7-oxo-[1,2,4]triazolo[1,5-a]pyrimidin-4(7H)-yl)-N-(3-isopropylbicyclo[1.1.1]pentan-1-yl)acetamide], the IC50 in assay [1] is ≤ 5 nM. Besides, in assay [2], the EC50 is ≤ 500 nM.

With `CCc1c(N2CCN(C(=O)c3c(OC)ncc(C4CCOC4)c3O)CC2)c(=O)c2nn(-c3ccnc(OC)c3)nc2n1CC(=O)NC12CC(C(C)C)(C1)C2` (single isomer, unassigned) [I-64], in assay [1], the IC50 lay within 5 to 50 nM. Also, in assay [2], the EC50 fell in the range of 500 to 2000 nM.

Turning to `CCc1c(N2CCN(C(=O)c3ncnc(C)c3O)[C@H]3CC[C@@H]32)c(=O)c2nc(N(C)C)cnc2n1CC(=O)NC1CC2(CCC2)C1` [I-229, 2-(2-(dimethylamino)-6-ethyl-7-((1S,6S)-5-(5-hydroxy-6-methylpyrimidine-4-carbonyl)-2,5-diazabicyclo[4.2.0]octan-2-yl)-8-oxopyrido[2,3-b]pyrazin-5(8H)-yl)-N-(spiro[3.3]heptan-2-yl)acetamide], in assay [1], the IC50 lay within 5 to 50 nM. For the same compound, the EC50 in assay [2] fell in the range of 2000 to 5000 nM.

For `CCc1c(N2CCN(C(=O)c3c(O)ccc4ncoc34)CC2)c(=O)n2ncnc2n1CC(=O)NC12CC(C3CCC3)(C1)C2` [I-243, N-(3-cyclobutylbicyclo[1.1.1]pentan-1-yl)-2-(5-ethyl-6-(4-(6-hydroxybenzo[d]oxazole-7-carbonyl)piperazin-1-yl)-7-oxo-[1,2,4]triazolo[1,5-a]pyrimidin-4(7H)-yl)acetamide], the IC50 in assay [1] fell in the range of 100 to 500 nM. For the same compound, the EC50 in assay [2] is > 5000 nM.

For `CCc1c(N2CCN(C(=O)c3ncc4c(c3O)CCO4)CC2)c(=O)n2nc(C3=CCN(C(C)=O)CC3)nc2n1CC(=O)NC12CC(C(F)(F)F)(C1)C2` [I-11, 2-(2-(1-acetyl-1,2,3,6-tetrahydropyridin-4-yl)-5-ethyl-6-(4-(4-hydroxy-2,3-dihydrofuro[2,3-c]pyridine-5-carbonyl)piperazin-1-yl)-7-oxo-[1,2,4]triazolo[1,5-a]pyrimidin-4(7H)-yl)-N-(3-(trifluoromethyl)bicyclo[1.1.1]pentan-1-yl)acetamide], the IC50 in assay [1] lay in the range of 5 to 50 nM. Also, in assay [2], the EC50 was 2000 to 5000 nM.

On to `CCc1c(N2CCN(C(=O)c3c(O)cc(OC)cc3OC)CC2)c(=O)c2nn(-c3ccnc(OC)c3)nc2n1CC(=O)NC12CC(C3CC3)(C1)C2` [I-132, N-{3-cyclopropylbicyclo[1.1.1]pentan-1-yl}-2-{5-ethyl-6-[4-(2-hydroxy-4,6-dimethoxybenzoyl)piperazin-1-yl]-2-(2-methoxypyridin-4-yl)-7-oxo-2H,4H,7H-[1,2,3]triazolo[4,5-b]pyridin-4-yl}acetamide], for which the IC50 in assay [1] is 5 to 50 nM. For the same compound, in assay [2], the EC50 fell in the range of 2000 to 5000 nM.

As to `CCc1c(N2CCN(C(=O)c3ncnc(C)c3O)[C@H]3CC[C@@H]32)c(=O)c2nc(C)c(C)nc2n1CC(=O)NC12CC(C3CCC3)(C1)C2` [I-210, N-(3-cyclobutylbicyclo[1.1.1]pentan-1-yl)-2-(6-ethyl-7-((1S,6S)-5-(5-hydroxy-6-methylpyrimidine-4-carbonyl)-2,5-diazabicyclo[4.2.0]octan-2-yl)-2,3-dimethyl-8-oxopyrido[2,3-b]pyrazin-5(8H)-yl)acetamide], the IC50 in assay [1] fell in the range of 5 to 50 nM. Moreover, in assay [2], the EC50 was in the range of 500 to 2000 nM.
